Reference: ChEMBL document CHEMBL3588813, “Antifungal Amphiphilic Aminoglycosides” (Medchemcomm, 2014)
In brackets after ≈: the same amount, converted by molar mass.

How the values were obtained:
[1] = test system: Staphylococcus aureus; test: Antimicrobial activity against Staphylococcus aureus ATCC 25923 assessed as inhibition of bacterial growth incubated at 35 degC for 12 to 18 hrs; assay type: functional
[2] = test system: Pseudomonas aeruginosa; test: Antimicrobial activity against Pseudomonas aeruginosa ATCC 27853 assessed as inhibition of bacterial growth incubated at 35 degC for 12 to 18 hrs; assay type: functional
[3] = test system: Staphylococcus aureus; test: Antimicrobial activity against methicillin-resistant Staphylococcus aureus ATCC 33591 assessed as inhibition of bacterial growth incubated at 35 degC for 12 to 18 hrs; assay type: functional
[4] = test system: Enterococcus faecalis; test: Antimicrobial activity against vancomycin-resistant Enterococcus faecalis ATCC 1299 assessed as inhibition of bacterial growth incubated at 35 degC for 12 to 18 hrs; assay type: functional
[5] = test system: Escherichia coli; test: Antimicrobial activity against Escherichia coli ATCC 25922 assessed as inhibition of bacterial growth incubated at 35 degC for 12 to 18 hrs; assay type: functional
[6] = test system: Fusarium graminearum; test: Antimicrobial activity against Fusarium graminearum B4-5A using RPMI medium by microbroth dilution assay; assay type: functional
[7] = test system: Fusarium graminearum; test: Antimicrobial activity against Fusarium graminearum B4-5A using potato dextrose broth as growth medium and diluent; assay type: functional
[8] = test system: Phoma; test: Antimicrobial activity against Phoma spp. using potato dextrose broth as growth medium and diluent; assay type: functional
[9] = test system: Escherichia coli; test: Antimicrobial activity against Escherichia coli ATCC 25922 using potato dextrose broth as growth medium and diluent; assay type: functional
[10] = test system: Curvularia brachyspora; test: Antimicrobial activity against Curvularia brachyspora using potato dextrose broth as growth medium and diluent; assay type: functional
[11] = Selectivity index, ratio of IC50 for mouse NIH/3T3 cells to MIC for Saccharomyces cerevisiae
[12] = test system: Rhizopus stolonifer; test: Antimicrobial activity against Rhizopus stolonifer using potato dextrose broth as growth medium and diluent; assay type: functional
[13] = test system: Fusarium oxysporum; test: Antimicrobial activity against Fusarium oxysporum using potato dextrose broth as growth medium and diluent; assay type: functional
[14] = test system: Cladosporium cladosporioides; test: Antimicrobial activity against Cladosporium cladosporioides using potato dextrose broth as growth medium and diluent; assay type: functional
[15] = test system: Candida albicans; test: Antimicrobial activity against Candida albicans 10231 using potato dextrose broth as growth medium and diluent; assay type: functional
[16] = Cytotoxic activity against mouse NIH/3T3 cells; assay type: cell-based, NIH3T3
[17] = test system: Ulocladium; test: Antimicrobial activity against Ulocladium spp. using potato dextrose broth as growth medium and diluent; assay type: functional; conditions: Alternaria sect. Ulocladium
[18] = test system: Botrytis cinerea; test: Antimicrobial activity against Botrytis cinerea using potato dextrose broth as growth medium and diluent; assay type: functional
[19] = test system: Fusarium graminearum; test: Antimicrobial activity against Fusarium graminearum B4-5A infecrtion in wheat assessed as Fusarium head blight disease incidence at 180 ug/ml pre-treated 24 hrs before infection (reference value: 61%); assay type: functional
[20] = test system: Fusarium graminearum; test: Antimicrobial activity against Fusarium graminearum B4-5A infecrtion in wheat assessed as Fusarium head blight disease incidence at 5 ug/ml pre-treated 24 hrs before infection (reference value: 61%); assay type: functional
[21] = Cytotoxic activity against human C8161.9 cells; assay type: cell-based
[22] = test system: Fusarium graminearum; test: Antimicrobial activity against Fusarium graminearum B4-5A infecrtion in wheat assessed as Fusarium head blight disease incidence at 30 ug/ml pre-treated 24 hrs before infection (reference value: 61%); assay type: functional
[23] = test system: Fusarium graminearum; test: Antimicrobial activity against Fusarium graminearum […] in wheat assessed as reduction in Fusarium head blight disease incidence at 1080 ug/ml pre-treated 24 hrs before infection; assay type: functional
[24] = Induction of hemolysis in sheep erythrocytes at 313 ug/ml; assay type: cell-based, Ovis aries, Erythrocyte; conditions: read-out: Activity
[25] = test system: Microdochium nivale; test: Antimicrobial activity against Microdochium nivale using potato dextrose broth as growth medium and diluent; assay type: functional
[26] = test system: Fusarium graminearum; test: Antimicrobial activity against Fusarium graminearum B4-5A infection in wheat assessed as reduction in spikelet infection rate at 30 ug/ml pre-treated 24 hrs before infection; assay type: functional
[27] = test system: Rhodotorula mucilaginosa; test: Antimicrobial activity against Rhodotorula piliminae using potato dextrose broth as growth medium and diluent; assay type: functional
[28] = test system: Staphylococcus aureus; test: Antimicrobial activity against Staphylococcus aureus using potato dextrose broth as growth medium and diluent; assay type: functional
[29] = Induction of hemolysis in sheep erythrocytes at 28 ug/ml; assay type: cell-based, Ovis aries, Erythrocyte; conditions: read-out: Activity
[30] = test system: Globisporangium ultimum; test: Antimicrobial activity against Pythium ultimum using potato dextrose broth as growth medium and diluent; assay type: functional
[31] = test system: Verticillium; test: Antimicrobial activity against Verticillium spp. using potato dextrose broth as growth medium and diluent; assay type: functional
[32] = Selectivity index, ratio of IC50 for human C8161.9 cells to MIC for Saccharomyces cerevisiae
[33] = test system: Fusarium graminearum; test: Antimicrobial activity against Fusarium graminearum B4-5A infection in wheat assessed as reduction in spikelet infection rate at 5 ug/ml pre-treated 24 hrs before infection; assay type: functional
[34] = test system: Fusarium graminearum; test: Antimicrobial activity against Fusarium graminearum B4-5A infecrtion in wheat assessed as Fusarium head blight disease incidence at 1080 ug/ml pre-treated 24 hrs before infection (reference value: 61%); assay type: functional

`CCCCCCCCCC(=O)NC[C@H]1O[C@@H](O[C@@H]2[C@@H](O)[C@H](N)C[C@H](N)[C@H]2O[C@H]2O[C@H](CN)[C@@H](O)[C@H](O)[C@H]2N)[C@H](O)[C@@H]1O[C@H]1O[C@@H](CN)[C@@H](O)[C@H](O)[C@H]1N` gave an MIC [1] of 16 µg/mL (≈ 20.8 µM), an MIC [2] of 16 µg/mL (≈ 20.8 µM) and an MIC [3] of 125 µg/mL (≈ 163 µM). The MIC [4] was 64 µg/mL (≈ 83.3 µM) and the MIC [5] was 32 µg/mL (≈ 41.7 µM).
Work on `CCCCCCCCCCCCCC(=O)NC[C@H]1O[C@@H](O[C@@H]2[C@@H](O)[C@H](N)C[C@H](N)[C@H]2O[C@H]2O[C@H](CN)[C@@H](O)[C@H](O)[C@H]2N)[C@H](O)[C@@H]1O[C@H]1O[C@@H](CN)[C@@H](O)[C@H](O)[C@H]1N` yielded an MIC [1] of 2 µg/mL (≈ 2.43 µM), an MIC [2] of 8 µg/mL (≈ 9.71 µM) and an MIC [3] of 4 µg/mL (≈ 4.85 µM). For the same compound, the MIC [4] was 8 µg/mL (≈ 9.71 µM) and the MIC [5] was 8 µg/mL (≈ 9.71 µM).
Work on `CCCCCCCCCCC(=O)OCC[C@H]1O[C@H](O[C@@H]2[C@@H](O)[C@H](O[C@H]3O[C@H](CN)[C@@H](O)[C@H](O)[C@H]3N)[C@@H](N)C[C@H]2N)[C@H](O)[C@@H](N)[C@@H]1O` yielded an MIC [6] of 62.5 µg/mL (≈ 93.9 µM).
`CCCCCCCCSCC[C@H]1O[C@H](O[C@@H]2[C@@H](O)[C@H](O[C@H]3O[C@H](CN)[C@@H](O)[C@H](O)[C@H]3N)[C@@H](N)C[C@H]2N)[C@H](O)[C@@H](N)[C@@H]1O` gave an MIC [6] of 15.6 µg/mL (≈ 24.9 µM).
Work on `Cc1ccc(S(=O)(=O)OCC[C@H]2O[C@H](O[C@@H]3[C@@H](O)[C@H](O[C@H]4O[C@H](CN)[C@@H](O)[C@H](O)[C@H]4O)[C@@H](N)C[C@H]3N)[C@H](O)[C@@H](N)[C@@H]2O)cc1` yielded an MIC [6] of over 500 µg/mL.
In the case of `CCCCO[C@H]1[C@H](N)[C@@H](O)[C@@H](O[C@@H]2[C@@H](O)[C@H](O[C@H]3O[C@H](CN)[C@@H](O)[C@H](O)[C@H]3N)[C@@H](N)C[C@H]2N)O[C@@H]1C`, the MIC [7] is reported as over 500 µg/mL and the MIC [6] is reported as over 500 µg/mL.
Compound `CCCCCCCCCCCCO[C@H]1[C@H](N)[C@@H](O)[C@@H](O[C@@H]2[C@@H](O)[C@H](O[C@H]3O[C@H](CN)[C@@H](O)[C@H](O)[C@H]3N)[C@@H](N)C[C@H]2N)O[C@@H]1C` has an MIC [7] of over 500 µg/mL and an MIC [6] of over 500 µg/mL.
With `CCCCCCCCO[C@H]1[C@H](N)[C@@H](O)[C@@H](O[C@@H]2[C@@H](O)[C@H](O[C@H]3O[C@H](CN)[C@@H](O)[C@H](O)[C@H]3N)[C@@H](N)C[C@H]2N)O[C@@H]1C` the MIC [8] was 31.3 µg/mL (≈ 54 µM), the MIC [9] was 250 µg/mL (≈ 431 µM) and the MIC [10] was 31.3 µg/mL (≈ 54 µM). For the same compound, the “Selectivity Index” value [11] was 10, the MIC [12] was 31.3 µg/mL (≈ 54 µM) and the MIC [13] was 7.8 µg/mL (≈ 13.5 µM). It also gave an MIC [7] of 7.8 µg/mL (≈ 13.5 µM), an MIC [14] of 31.3 µg/mL (≈ 54 µM) and an MIC [15] of 31.3 µg/mL (≈ 54 µM). For the same compound, the IC50 ([16]; Mus musculus, NIH3T3) was over 250 µg/mL, the Activity ([16]; mouse, nih3t3) was “Dose-dependent effect” and the MIC [17] was 7.8 µg/mL (≈ 13.5 µM). The MIC [18] was 31.3 µg/mL (≈ 54 µM), the Activity [19] was 76% and the Activity [20] was 76%. The IC50 ([21]; Homo sapiens) was over 250 µg/mL, the Activity ([21]; human) was “Dose-dependent effect” and the Activity [22] was 70%. For the same compound, the MIC [6] was 31.5 µg/mL (≈ 54.3 µM), the inhibition at 1080 µg/mL [23] was 82% and the hemolysis at 313 ug/ml [24] was over 20%. For the same compound, the MIC [25] was 3.9 µg/mL (≈ 6.73 µM), the inhibition at 30 µg/mL [26] was 49% and the MIC [27] was 7.8 µg/mL (≈ 13.5 µM). It also gave an MIC [28] of 62.5 µg/mL (≈ 108 µM), a hemolysis at 28 ug/ml [29] of 2% and an MIC [30] of 15.6 µg/mL (≈ 26.9 µM). The MIC [31] was 15.2 µg/mL (≈ 26.2 µM), the “Selectivity Index” value [32] was 10 and the inhibition at 5 µg/mL [33] was 29%. The Activity [34] was 80%.
In the case of `NC[C@@H]1O[C@H](O[C@H]2[C@@H](O)[C@H](O[C@@H]3[C@@H](O)[C@H](N)C[C@H](N)[C@H]3O[C@H]3O[C@H](CN)[C@@H](O)[C@H](O)[C@H]3N)O[C@@H]2Cn2cc(CNC(=O)c3cc(-c4ccccc4)nc4ccccc34)nn2)[C@H](N)[C@@H](O)[C@@H]1O`, the MIC [1] is reported as 8 µg/mL (≈ 8.64 µM) and the MIC [5] is reported as 32 µg/mL (≈ 34.6 µM).
Work on `CCCCCCC(=O)NC[C@H]1O[C@@H](O[C@@H]2[C@@H](O)[C@H](N)C[C@H](N)[C@H]2O[C@H]2O[C@H](CN)[C@@H](O)[C@H](O)[C@H]2N)[C@H](O)[C@@H]1O[C@H]1O[C@@H](CN)[C@@H](O)[C@H](O)[C@H]1N` yielded an MIC [1] of 2 µg/mL (≈ 2.76 µM), an MIC [2] of at least 250 µg/mL and an MIC [3] of 125 µg/mL (≈ 172 µM). The MIC [6] was 62.5 µg/mL (≈ 86.1 µM), the MIC [4] was at least 250 µg/mL and the MIC [5] was 16 µg/mL (≈ 22 µM).
